# Experimental data published in PubChem BioAssay AID2060905 (Molecular Pharmacology Branch, DTP, NCI, 2025).
# pIC50: −log10 of the molar value.
# Tested on: 282377-053-R-J1-PDC complex spheroid viability
# Test: Anticancer human tumor 282377-053-R-J1-PDC patient-derived colon adenocarcinoma cell line growth inhibition [RAS]
# Settings: for pIC50: curve of first compound; for viability, T/C: stronger effect = lower value
# Outline: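 Tumour cells grown as complex spheroids with HUVEC endothelial cells and mesenchymal stem cells, treated with RAS pathway inhibitor combinations. Each agent spans half-log steps from near clinical Cmax, or 10 microM where Cmax is unknown.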
# [1] = second compound 0.000949 µM, first compound 0.0316 µM
# [2] = second compound 0.000949 µM, first compound 0.1 µM
# [3] = second compound 0.000949 µM, first compound 0.316 µM
# [4] = second compound 0.000949 µM, first compound 1 µM
# [5] = second compound 0.003 µM, first compound 0.0316 µM
# [6] = second compound 0.003 µM, first compound 0.1 µM
# [7] = second compound 0.003 µM, first compound 0.316 µM
# [8] = second compound 0.003 µM, first compound 1 µM
# [9] = second compound 0.00949 µM, first compound 0.0316 µM
# [10] = second compound 0.00949 µM, first compound 0.1 µM
# [11] = second compound 0.00949 µM, first compound 0.316 µM
# [12] = second compound 0.00949 µM, first compound 1 µM
# [13] = second compound 0.03 µM, first compound 0.0316 µM
# [14] = second compound 0.03 µM, first compound 0.1 µM
# [15] = second compound 0.03 µM, first compound 0.316 µM
# [16] = second compound 0.03 µM, first compound 1 µM
# [17] = second compound 0.0949 µM, first compound 0.0316 µM
# [18] = second compound 0.0949 µM, first compound 0.1 µM
# [19] = second compound 0.0949 µM, first compound 0.316 µM
# [20] = second compound 0.0949 µM, first compound 1 µM
# [21] = second compound 0.3 µM, first compound 0.0316 µM
# [22] = second compound 0.3 µM, first compound 0.1 µM
# [23] = second compound 0.3 µM, first compound 0.316 µM
# [24] = second compound 0.3 µM, first compound 1 µM
# 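Also: spheroids exposed to agents for seven days before readout.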
# 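For viability, T/C in this document: luminescence viability as percent of DMSO vehicle control wells.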
compound,measurement,setting,value
C=CC(=O)N1CCN(c2nc(OCC3CCCN3C)nc3c(F)c(-c4nc(N)cc(C)c4C(F)(F)F)c(Cl)cc23)C(C)C1 (stereo unspecified) + CCn1c(-c2cccnc2C(C)OC)c2c3cc(ccc31)N1CCOC(CC(NC(=O)C(C(C)C)N(C)C(=O)C3(F)CCN(C(=O)C#CC(C)(C)N(C)C)CC3)C(=O)N3CCCC(N3)C(=O)OCC(C)(C)C2)C1,pIC50,second compound 0.000949 µM,< 6.00
same,pIC50,second compound 0.003 µM,< 6.00
same,pIC50,second compound 0.00949 µM,< 6.00
same,pIC50,second compound 0.03 µM,< 6.00
same,pIC50,second compound 0.0949 µM,< 6.00
same,pIC50,second compound 0.3 µM,< 6.00
same,"viability, T/C","second compound 0.000949 µM, first compound 0.00316 µM",90.6%
same,"viability, T/C","second compound 0.000949 µM, first compound 0.01 µM",110%
same,"viability, T/C",[1],109%
same,"viability, T/C",[2],92.1%
same,"viability, T/C",[3],98%
same,"viability, T/C",[4],87.1%
same,"viability, T/C","second compound 0.003 µM, first compound 0.00316 µM",105%
same,"viability, T/C","second compound 0.003 µM, first compound 0.01 µM",131%
same,"viability, T/C",[5],86.9%
same,"viability, T/C",[6],101%
same,"viability, T/C",[7],81.2%
same,"viability, T/C",[8],85.3%
same,"viability, T/C","second compound 0.00949 µM, first compound 0.00316 µM",96.2%
same,"viability, T/C","second compound 0.00949 µM, first compound 0.01 µM",92.7%
same,"viability, T/C",[9],83.6%
same,"viability, T/C",[10],88.7%
same,"viability, T/C",[11],81.5%
same,"viability, T/C",[12],82.8%
same,"viability, T/C","second compound 0.03 µM, first compound 0.00316 µM",92.9%
same,"viability, T/C","second compound 0.03 µM, first compound 0.01 µM",97.5%
same,"viability, T/C",[13],86.2%
same,"viability, T/C",[14],112%
same,"viability, T/C",[15],89.9%
same,"viability, T/C",[16],93.8%
same,"viability, T/C","second compound 0.0949 µM, first compound 0.00316 µM",90.5%
same,"viability, T/C","second compound 0.0949 µM, first compound 0.01 µM",104%
same,"viability, T/C",[17],115%
same,"viability, T/C",[18],109%
same,"viability, T/C",[19],109%
same,"viability, T/C",[20],96.3%
same,"viability, T/C","second compound 0.3 µM, first compound 0.00316 µM",90.1%
same,"viability, T/C","second compound 0.3 µM, first compound 0.01 µM",92.1%
same,"viability, T/C",[21],97.5%
same,"viability, T/C",[22],93.3%
same,"viability, T/C",[23],113%
same,"viability, T/C",[24],98.2%
CC(Nc1ccc2c(c1)OCCn1cc(N3C(=O)OCC3C(F)F)nc1-2)C(N)=O (stereo unspecified) + CCn1c(-c2cccnc2C(C)OC)c2c3cc(ccc31)N1CCOC(CC(NC(=O)C(C(C)C)N(C)C(=O)C3(F)CCN(C(=O)C#CC(C)(C)N(C)C)CC3)C(=O)N3CCCC(N3)C(=O)OCC(C)(C)C2)C1,pIC50,second compound 0.000949 µM,< 5.00
same,pIC50,second compound 0.003 µM,< 5.00
same,pIC50,second compound 0.00949 µM,< 5.00
same,pIC50,second compound 0.03 µM,< 5.00
same,pIC50,second compound 0.0949 µM,< 5.00
same,pIC50,second compound 0.3 µM,< 5.00
same,"viability, T/C",[1],97.3%
same,"viability, T/C",[2],101%
same,"viability, T/C",[3],86.2%
same,"viability, T/C",[4],88.7%
same,"viability, T/C","second compound 0.000949 µM, first compound 3.16 µM",109%
same,"viability, T/C","second compound 0.000949 µM, first compound 10 µM",80.8%
same,"viability, T/C",[5],99.8%
same,"viability, T/C",[6],97.7%
same,"viability, T/C",[7],86.9%
same,"viability, T/C",[8],94.4%
same,"viability, T/C","second compound 0.003 µM, first compound 3.16 µM",97.5%
same,"viability, T/C","second compound 0.003 µM, first compound 10 µM",78.1%
same,"viability, T/C",[9],118%
same,"viability, T/C",[10],85.9%
same,"viability, T/C",[11],84%
same,"viability, T/C",[12],104%
same,"viability, T/C","second compound 0.00949 µM, first compound 3.16 µM",86.3%
same,"viability, T/C","second compound 0.00949 µM, first compound 10 µM",76.3%
same,"viability, T/C",[13],83.7%
same,"viability, T/C",[14],83.8%
same,"viability, T/C",[15],86.5%
same,"viability, T/C",[16],98.5%
same,"viability, T/C","second compound 0.03 µM, first compound 3.16 µM",110%
same,"viability, T/C","second compound 0.03 µM, first compound 10 µM",75.2%
same,"viability, T/C",[17],102%
same,"viability, T/C",[18],113%
same,"viability, T/C",[19],78.8%
same,"viability, T/C",[20],88.8%
same,"viability, T/C","second compound 0.0949 µM, first compound 3.16 µM",96.2%
same,"viability, T/C","second compound 0.0949 µM, first compound 10 µM",74.8%
same,"viability, T/C",[21],84.7%
same,"viability, T/C",[22],85.5%
same,"viability, T/C",[23],96.7%
same,"viability, T/C",[24],98.5%
same,"viability, T/C","second compound 0.3 µM, first compound 3.16 µM",92.2%
same,"viability, T/C","second compound 0.3 µM, first compound 10 µM",82.7%
CC(Nc1ccc2c(c1)OCCn1cc(N3C(=O)OCC3C(F)F)nc1-2)C(N)=O (stereo unspecified) + C=CC(=O)N1CCN(c2nc(OCC3CCCN3C)nc3c(F)c(-c4nc(N)cc(C)c4C(F)(F)F)c(Cl)cc23)C(C)C1,pIC50,second compound 0.00316 µM,< 5.00
same,pIC50,second compound 0.01 µM,< 5.00
same,pIC50,second compound 0.0316 µM,< 5.00
same,pIC50,second compound 0.1 µM,< 5.00
same,pIC50,second compound 0.316 µM,< 5.00
same,pIC50,second compound 1 µM,< 5.00
same,"viability, T/C","second compound 0.00316 µM, first compound 0.0316 µM",100%
same,"viability, T/C","second compound 0.00316 µM, first compound 0.1 µM",93.8%
same,"viability, T/C","second compound 0.00316 µM, first compound 0.316 µM",94.3%
same,"viability, T/C","second compound 0.00316 µM, first compound 1 µM",82.6%
same,"viability, T/C","second compound 0.00316 µM, first compound 3.16 µM",78.9%
same,"viability, T/C","second compound 0.00316 µM, first compound 10 µM",70.1%
same,"viability, T/C","second compound 0.01 µM, first compound 0.0316 µM",105%
same,"viability, T/C","second compound 0.01 µM, first compound 0.1 µM",89.1%
same,"viability, T/C","second compound 0.01 µM, first compound 0.316 µM",79.6%
same,"viability, T/C","second compound 0.01 µM, first compound 1 µM",82.4%
same,"viability, T/C","second compound 0.01 µM, first compound 3.16 µM",89.9%
same,"viability, T/C","second compound 0.01 µM, first compound 10 µM",81.5%
same,"viability, T/C","second compound 0.0316 µM, first compound 0.0316 µM",91.1%
same,"viability, T/C","second compound 0.0316 µM, first compound 0.1 µM",86.9%
same,"viability, T/C","second compound 0.0316 µM, first compound 0.316 µM",87.1%
same,"viability, T/C","second compound 0.0316 µM, first compound 1 µM",88.9%
same,"viability, T/C","second compound 0.0316 µM, first compound 3.16 µM",77.6%
same,"viability, T/C","second compound 0.0316 µM, first compound 10 µM",86.1%
same,"viability, T/C","second compound 0.1 µM, first compound 0.0316 µM",101%
same,"viability, T/C","second compound 0.1 µM, first compound 0.1 µM",94.1%
same,"viability, T/C","second compound 0.1 µM, first compound 0.316 µM",95.5%
same,"viability, T/C","second compound 0.1 µM, first compound 1 µM",82.2%
same,"viability, T/C","second compound 0.1 µM, first compound 3.16 µM",102%
same,"viability, T/C","second compound 0.1 µM, first compound 10 µM",76.7%
same,"viability, T/C","second compound 0.316 µM, first compound 0.0316 µM",104%
same,"viability, T/C","second compound 0.316 µM, first compound 0.1 µM",92.8%
same,"viability, T/C","second compound 0.316 µM, first compound 0.316 µM",100%
same,"viability, T/C","second compound 0.316 µM, first compound 1 µM",94.3%
same,"viability, T/C","second compound 0.316 µM, first compound 3.16 µM",78.2%
same,"viability, T/C","second compound 0.316 µM, first compound 10 µM",78.4%
same,"viability, T/C","second compound 1 µM, first compound 0.0316 µM",105%
same,"viability, T/C","second compound 1 µM, first compound 0.1 µM",102%
same,"viability, T/C","second compound 1 µM, first compound 0.316 µM",92%
same,"viability, T/C","second compound 1 µM, first compound 1 µM",93.8%
same,"viability, T/C","second compound 1 µM, first compound 3.16 µM",76%
same,"viability, T/C","second compound 1 µM, first compound 10 µM",83.8%
